According to patent US8580229B2, “Amyloid imaging as a surrogate marker for efficacy of anti-amyloid therapies” (University of Pittsburgh—of the Commonwealth System of …, priority 2004, dated 2013):

Test system: amyloid deposition in AD brain (homogenates of frontal, temporal, parietal cortex and cerebellum)
Experiment: [^3H]PIB binding to homogenates of postmortem brain
Set-up: species or system human
Conditions: AD n=5, control n=4; 1 nM [^3H]PIB
Method: To determine whether benzothiazole amyloid imaging probes might be sensitive to changes in brain amyloid deposition caused by an anti-amyloid therapy in general, testing by immunization with AN-1792 was performed. Studies were performed for the binding of {N-methyl-^3H}2-[4′-(methylamino)phenyl]6-hydroxy-benzothiazole ([^3H]PIB) to homogenates of frontal cortex and cerebellum obtained from control subjects (n=4), AD patients (n=5) and from a single AN-1792-treated AD case (in duplicate). See, e.g., Example 9.
This [^11C]PIB retention follows the known topography of amyloid deposition in AD brain (Klunk et al. 2004, Ann. Neurol., 55 (3):306-19). To determine whether the present benzothiazole amyloid imaging probes are sensitive to changes in brain amyloid deposition caused by an anti-amyloid therapy in general, studies were performed for the binding of {N-methyl-^3H}2-[4′-(methylamino)phenyl]6-hydroxy-benzothiazole ([^3H]PIB) to homogenates of postmortem brain from […] AN-1792-treated AD cases. […] An aliquot was submitted for Aβ ELISA and another aliquot was assayed for [^3H]PIB binding after dilution with phosphate-buffered saline (100 mg tissue, incubated with 1 nM [^3H]PIB, filtered, washed and counted to determine bound [^3H]PIB).

In the case of `[3H]C([3H])([3H])Nc1ccc(-c2nc3ccc(O)cc3s2)cc1` [[^3H]PIB, {N-methyl-^3H}2-[4′-(methylamino)phenyl]6-hydroxy-benzothiazole], the “[^3H]PIB binding to frontal cortex homogenates of AD patients compared to control brain” value is reported as “elevated [^3H]PIB binding compared to control brain”.
